ChEMBL document CHEMBL4334533, “Design, synthesis, and validation of novel nitrogen-based chalcone analogs against triple negative breast cancer” (Eur J Med Chem, 2020)
Active and inactive are the calls of the source. The calls are words filed in the database; no cut-off is given here.

Assays:
MDA-MB-468 [1] = assay: Induction of apoptosis in human MDA-MB-468 cells assessed as necrotic cells at 8 uM measured after 24 hrs by AnnexinV/7-AAD staining based flow cytometric analysis (reference value: 0.62%); type: functional
MDA-MB-231 [2] = assay: Antimigratory activity in human MDA-MB-231 cells assessed as wound diameter measured after 24 hrs by microscopic analysis (reference value: 29.5 +/- 1.95%); type: functional
MCF7 [3] = assay: Antiinvasive activity in human MCF7 cells assessed as reduction in 10% FBS-induced cell invasion at 5 uM by crystal violet staining based matrigel assay relative to control; type: functional
MDA-MB-231 [4] = assay: Cell cycle arrest in human MDA-MB-231 cells assessed as accumulation at G2/M phase at 5 uM measured after 48 hrs by propidium iodide staining-based flow cytometric analysis relative to control; type: functional
[5] = Cytotoxicity against E6/E7 immortalized human HNME cells assessed as inhibition of cell growth measured after 48 hrs by microplate reader analysis; type: cell-based; details: read-out: LD50
MDA-MB-231 [6] = assay: Induction of morphological changes in human MDA-MB-231 cells assessed as mesenchymal-epithelial transition at 10 uM by inverted microscopic analysis; type: functional, cell-based
[7] = Selectivity index, ratio of LD50 for E6/E7 immortalized human HNME cells to IC50 for human MDA-MB-468 cells
MCF7 [8] = assay: Up regulation of E-cadherin level in human MCF7 cells up to 10 uM by Western blot analysis; type: functional, cell-based
MDA-MB-468 [9] = assay: Induction of apoptosis in human MDA-MB-468 cells assessed as late apoptotic cells at 8 uM measured after 24 hrs by AnnexinV/7-AAD staining based flow cytometric analysis (reference value: 1.86%); type: functional
MDA-MB-231 [10] = assay: Antiproliferative activity against human MDA-MB-231 cells assessed as inhibition of cell growth measured after 48 hrs by microplate reader analysis; type: functional, cell-based; details: MDA-MB-231, 48 h
MCF7 [11] = assay: Up regulation of pan-cadherin level in human MCF7 cells up to 10 uM by Western blot analysis; type: functional, cell-based
[12] = Toxicity in athymic nude mouse xenografted with human MDA-MB-231 cells assessed as behavioral change at 10 mg/kg, ip administered for 14 days; type: organism-based; details: in vivo, 336 h
MDA-MB-231 [13] = assay: Antitumor activity against human MDA-MB-231 cells xenografted in athymic nude mouse assessed as the inhibition of tumor growth at 10 mg/kg, ip dosed 3 times per week for 45 days relative to control; type: functional; details: MDA-MB-231, ip, 1080 h
MDA-MB-231 [14] = assay: Antitumor activity against human MDA-MB-231 cells xenografted in athymic nude mouse assessed as the reduction in tumor weight at 10 mg/kg, ip dosed 3 times per week for 45 days (reference value: 1.58 +/- 0.283 g); type: functional
MDA-MB-231 [15] = assay: Antitumor activity against human MDA-MB-231 cells xenografted in athymic nude mouse assessed as the reduction in tumor volume at 10 mg/kg, ip dosed 3 times per week for 45 days (reference value: 1350 mm3); type: functional
MCF7 [16] = assay: Induction of morphological changes in human MCF7 cells assessed as mesenchymal-epithelial transition at 10 uM by inverted microscopic analysis; type: functional, cell-based
MDA-MB-231 [17] = assay: Inhibition of tumor growth in human MDA-MB-231 cells xenografted in nude mouse; type: functional
MDA-MB-468 [18] = assay: Antiinvasive activity in human MDA-MB-468 cells assessed as reduction in 10% FBS-induced cell invasion at 5 uM by crystal violet staining based matrigel assay relative to control; type: functional
MDA-MB-468 [19] = assay: Induction of morphological changes in human MDA-MB-468 cells assessed as mesenchymal-epithelial transition at 10 uM by inverted microscopic analysis; type: functional, cell-based
MDA-MB-231 [20] = assay: Up regulation of pan-cadherin level in human MDA-MB-231 cells up to 10 uM by Western blot analysis; type: functional, cell-based
[21] = Toxicity in athymic nude mouse xenografted with human MDA-MB-231 cells assessed as effect on survival rate at 10 mg/kg, ip dosed 5 times per week preincubated for 15 days measured after 30 days; type: organism-based; details: in vivo, 720 h
MCF7 [22] = assay: Antiproliferative activity against human MCF7 cells assessed as inhibition of cell growth measured after 48 hrs by microplate reader analysis; type: functional, cell-based; details: MCF7, 48 h
MCF7 [23] = assay: Inhibition of anchorage-independent colony formation in human MCF7 cells at 5 uM measured upto 21 days by soft agar colony formation assay; type: functional, cell-based
[24] = Selectivity index, ratio of LD50 for E6/E7 immortalized human HNME cells to IC50 for human MDA-MB-231 cells
MDA-MB-231 [25] = assay: Up regulation of E-cadherin level in human MDA-MB-231 cells up to 10 uM by Western blot analysis; type: functional, cell-based
[26] = Selectivity index, ratio of LD50 for E6/E7 immortalized human HNME cells to IC50 for human MCF7 cells
MDA-MB-468 [27] = assay: Induction of apoptosis in human MDA-MB-468 cells assessed as viable cells at 8 uM measured after 48 hrs by AnnexinV/7-AAD staining based flow cytometric analysis (reference value: 92.5%); type: functional; details: MDA-MB-468, 48 h, read-out: Activity
Chorioallantoic membrane = assay: Antiangiogenic activity in Leghorn chicken fertilized egg chorioallantoic membrane assessed as reduction in number of blood vessels at 4 ug measured after 4 days by microscopic analysis relative to control; type: functional, tissue-based; parameters: scale not given: the % may be the effect or the level left; details: Gallus gallus
MDA-MB-231 [28] = assay: Antimigratory activity in human MDA-MB-231 cells assessed as wound diameter at 5 uM measured after 24 hrs by microscopic analysis; type: functional, cell-based
MDA-MB-468 [29] = assay: Inhibition of anchorage-independent colony formation in human MDA-MB-468 cells at 5 uM measured upto 21 days by soft agar colony formation assay; type: functional, cell-based
MDA-MB-231 [30] = assay: Growth inhibition in human MDA-MB-231 cells at 10 uM after 48 hrs by MTT assay; type: functional, cell-based
MCF7 [31] = assay: Induction of apoptosis in human MCF7 cells assessed as increase in BAX/Bcl2 expression ratio upto 10 uM measured after 48 hrs by western blot analysis; type: functional, cell-based
MDA-MB-468 [32] = assay: Induction of apoptosis in human MDA-MB-468 cells assessed as early apoptotic cells at 8 uM measured after 48 hrs by AnnexinV/7-AAD staining based flow cytometric analysis (reference value: 4.15%); type: functional
MDA-MB-231 [33] = assay: Down regulation of FAK level in human MDA-MB-231 cells up to 10 uM by Western blot analysis; type: functional, cell-based
MDA-MB-231 [34] = assay: Inhibition of anchorage-independent colony formation in human MDA-MB-231 cells at 5 uM measured upto 21 days by soft agar colony formation assay; type: functional, cell-based
MCF7 [35] = assay: Growth inhibition in human MCF7 cells at 10 uM after 48 hrs by MTT assay; type: functional, cell-based
MDA-MB-468 [36] = assay: Antiproliferative activity against human MDA-MB-468 cells assessed as inhibition of cell growth measured after 48 hrs by microplate reader analysis; type: functional, cell-based; details: MDA-MB-468, 48 h
MDA-MB-468 [37] = assay: Induction of apoptosis in human MDA-MB-468 cells assessed as increase in BAX/Bcl2 expression ratio upto 10 uM measured after 48 hrs by western blot analysis; type: functional, cell-based
MDA-MB-231 [38] = assay: Antitumor activity against human MDA-MB-231 cells xenografted in athymic nude mouse assessed as time delay in tumor growth at 10 mg/kg, ip dosed 5 times per week preincubated for 15 days measured after 30 days relative to control; type: functional, organism-based

In the case of `COc1cccc(C(=O)/C=C/c2ccc(N(CCCl)CCCl)cc2)c1`, the Activity (MDA-MB-468 [1]) is reported as 0.61%, the “inhibition (INH)” value (MDA-MB-231 [2]) is reported as 67.89% and the Activity (MCF7 [3]) is reported as “Active”. For the same compound, the Activity (MDA-MB-231 [4]) was 47.27%, the CC50 at 48 h [5] was 21.3 µM and the Activity (MDA-MB-231 [6]) was “Active”. For the same compound, the “Ratio LD50/IC50” value [7] was 2.92, the Activity (MCF7 [8]) was “Active” and the Activity (MDA-MB-468 [9]) was 2.13%. For the same compound, the IC50 (MDA-MB-231 [10]) was 8 µM, the Activity (MCF7 [11]) was “Active” and the Activity [12] was “Non-Toxic”. It also gave an inhibition in vivo at 10 mg/kg (MDA-MB-231 [13]) of 46.4%, an Activity (MDA-MB-231 [14]) of 0.88 g and an Activity (MDA-MB-231 [15]) of 487.26 mm3. The Activity (MCF7 [16]) was “Active”, the “inhibition (INH)” value (MDA-MB-231 [17]) was 57% and the Activity (MDA-MB-468 [18]) was “Active”. For the same compound, the Activity (MDA-MB-468 [19]) was “Active”, the Activity (MDA-MB-231 [20]) was “Active” and the Activity [21] was “Non-Toxic”. For the same compound, the IC50 (MCF7 [22]) was 6.43 µM, the “colony formation inhibition (activity call)” value (MCF7 [23]) was “Active” and the “Ratio LD50/IC50” value [24] was 2.66. For the same compound, the Activity (MDA-MB-231 [25]) was “Active”, the “Ratio LD50/IC50” value [26] was 3.31 and the viability at 8 µM (MDA-MB-468 [27]) was 57.3%. The Activity (Chorioallantoic membrane) was 60.2%, the Activity (MDA-MB-231 [28]) was “Active” and the “colony formation inhibition (active/inactive)” value (MDA-MB-468 [29]) was “Active”. The “growth inhibition (GI)” value (MDA-MB-231 [30]) was “Active”, the Activity (MCF7 [31]) was “Active” and the Activity (MDA-MB-468 [32]) was 28%. The Activity (MDA-MB-231 [33]) was “Active”, the inhibition (MDA-MB-231 [34]) was “Active” and the “growth inhibition (GI)” value (MCF7 [35]) was “Active”. The IC50 (MDA-MB-468 [36]) was 7.3 µM, the Activity (MDA-MB-468 [37]) was “Active” and the Activity (MDA-MB-231 [38]) was “Active”.
